Assay results reported in ChEMBL document CHEMBL1158540, “Heterocyclic cycloalkanol ethylamines as norepinephrine reuptake inhibitors” (Bioorg Med Chem Lett, 2010).

Legend:
[1] = molecular target: T1, Sodium-dependent noradrenaline transporter (Homo sapiens, UniProt P23975)
[2] = molecular target: T1, Sodium-dependent noradrenaline transporter; experiment: Inhibition of human NET transfected in MDCK-Net6 cells at 1 uM; type: cell-based
[3] = molecular target: T2, Sodium-dependent serotonin transporter (Homo sapiens, UniProt P31645); experiment: Inhibition of human SERT expressed in human JAR cells at 1 uM; type: cell-based
Target sequence in this assay (P31645 whole entry, looked up): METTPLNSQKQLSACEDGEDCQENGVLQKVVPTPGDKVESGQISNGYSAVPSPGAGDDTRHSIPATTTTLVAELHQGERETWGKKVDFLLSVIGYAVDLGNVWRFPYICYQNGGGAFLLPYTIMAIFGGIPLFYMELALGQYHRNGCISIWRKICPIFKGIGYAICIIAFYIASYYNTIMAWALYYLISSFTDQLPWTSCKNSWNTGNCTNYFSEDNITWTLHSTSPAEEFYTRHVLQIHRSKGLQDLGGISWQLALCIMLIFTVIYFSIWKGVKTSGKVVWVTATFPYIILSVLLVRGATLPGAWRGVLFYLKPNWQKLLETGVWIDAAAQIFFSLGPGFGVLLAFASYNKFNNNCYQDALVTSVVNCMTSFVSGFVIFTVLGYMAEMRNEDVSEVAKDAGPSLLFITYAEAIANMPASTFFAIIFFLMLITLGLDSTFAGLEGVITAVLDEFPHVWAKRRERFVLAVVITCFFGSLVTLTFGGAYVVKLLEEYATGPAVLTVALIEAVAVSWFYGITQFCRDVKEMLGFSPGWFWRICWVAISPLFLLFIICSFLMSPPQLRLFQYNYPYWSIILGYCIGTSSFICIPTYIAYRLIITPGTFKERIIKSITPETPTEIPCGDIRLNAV

[4] = molecular target: T3, Sodium-dependent dopamine transporter (Homo sapiens, UniProt Q01959); experiment: Inhibition of [3H]WIN-35428 binding to human DAT expressed in CHO membranes at 1000 nM; type: cell membranes
[5] = molecular target: T3, Sodium-dependent dopamine transporter; experiment: biochemical
Description: Displacement of [3H]WIN-35428 form human DAT expressed in CHO cell membranes

Rattus norvegicus [6] = experiment: Effect on temperature homeostasis in telemetric ovariectomy-induced thermoregulatory dysfunction rat model assessed as mean reduction of tail skin temperature from baseline at 30 mg/kg, ip after 5.5 hrs; type: functional; settings: route intraperitoneal
Rattus norvegicus [7] = experiment: Effect on temperature homeostasis in telemetric ovariectomy-induced thermoregulatory dysfunction rat model assessed as maximum reduction of tail skin temperature from baseline at 30 mg/kg, ip fter 5.5 hrs; type: functional; settings: route intraperitoneal
Rattus norvegicus [8] = experiment: Effect on temperature homeostasis in telemetric ovariectomy-induced thermoregulatory dysfunction rat model assessed as mean reduction of tail skin temperature from baseline at 30 mg/kg, po after 3 hrs; type: functional
Rattus norvegicus [9] = experiment: Effect on temperature homeostasis in telemetric ovariectomy-induced thermoregulatory dysfunction rat model assessed as maximum reduction of tail skin temperature from baseline at 30 mg/kg, po after 3 hrs; type: functional
Rattus norvegicus [10] = experiment: Effect on temperature homeostasis in telemetric ovariectomy-induced thermoregulatory dysfunction rat model assessed as maximum reduction of tail skin temperature from baseline at 30 mg/kg, sc fter 6.5 hrs; type: functional; settings: route subcutaneous
[11] = molecular target: T2, Sodium-dependent serotonin transporter; type: cell-based, JAR
Target sequence in this assay (P31645 whole entry): as the sequence (P31645 whole entry, looked up) above

[12] = Half life in rat microsomes; type: ADME, Microsome
Rattus norvegicus [13] = experiment: Effect on temperature homeostasis in telemetric ovariectomy-induced thermoregulatory dysfunction rat model assessed as mean reduction of tail skin temperature from baseline at 30 mg/kg, sc after 6.5 hrs; type: functional; settings: route subcutaneous
Rattus norvegicus [14] = experiment: Effect on temperature homeostasis in telemetric ovariectomy-induced thermoregulatory dysfunction rat model assessed as maximum reduction of tail skin temperature from baseline at 30 mg/kg, ip fter 6 hrs; type: functional; settings: route intraperitoneal
Rattus norvegicus [15] = experiment: Effect on temperature homeostasis in telemetric ovariectomy-induced thermoregulatory dysfunction rat model assessed as mean reduction of tail skin temperature from baseline at 30 mg/kg, ip after 6 hrs; type: functional; settings: route intraperitoneal

T1 sequence (P23975 whole entry): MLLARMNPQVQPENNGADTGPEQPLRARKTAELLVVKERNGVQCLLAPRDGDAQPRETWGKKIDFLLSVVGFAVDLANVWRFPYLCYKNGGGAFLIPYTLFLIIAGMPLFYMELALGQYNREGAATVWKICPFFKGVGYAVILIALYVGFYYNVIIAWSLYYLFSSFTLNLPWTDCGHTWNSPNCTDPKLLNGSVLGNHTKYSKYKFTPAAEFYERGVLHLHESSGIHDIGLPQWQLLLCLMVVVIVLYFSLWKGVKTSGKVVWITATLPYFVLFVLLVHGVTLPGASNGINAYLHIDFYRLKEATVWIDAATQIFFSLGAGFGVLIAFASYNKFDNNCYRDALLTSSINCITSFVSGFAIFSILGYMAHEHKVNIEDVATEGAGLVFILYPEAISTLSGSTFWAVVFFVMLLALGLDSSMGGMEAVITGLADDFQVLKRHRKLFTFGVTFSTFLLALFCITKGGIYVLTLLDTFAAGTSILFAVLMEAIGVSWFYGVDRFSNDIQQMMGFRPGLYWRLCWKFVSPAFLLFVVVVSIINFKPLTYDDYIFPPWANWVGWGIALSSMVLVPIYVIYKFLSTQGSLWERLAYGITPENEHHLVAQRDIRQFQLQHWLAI
T3 sequence (Q01959 whole entry): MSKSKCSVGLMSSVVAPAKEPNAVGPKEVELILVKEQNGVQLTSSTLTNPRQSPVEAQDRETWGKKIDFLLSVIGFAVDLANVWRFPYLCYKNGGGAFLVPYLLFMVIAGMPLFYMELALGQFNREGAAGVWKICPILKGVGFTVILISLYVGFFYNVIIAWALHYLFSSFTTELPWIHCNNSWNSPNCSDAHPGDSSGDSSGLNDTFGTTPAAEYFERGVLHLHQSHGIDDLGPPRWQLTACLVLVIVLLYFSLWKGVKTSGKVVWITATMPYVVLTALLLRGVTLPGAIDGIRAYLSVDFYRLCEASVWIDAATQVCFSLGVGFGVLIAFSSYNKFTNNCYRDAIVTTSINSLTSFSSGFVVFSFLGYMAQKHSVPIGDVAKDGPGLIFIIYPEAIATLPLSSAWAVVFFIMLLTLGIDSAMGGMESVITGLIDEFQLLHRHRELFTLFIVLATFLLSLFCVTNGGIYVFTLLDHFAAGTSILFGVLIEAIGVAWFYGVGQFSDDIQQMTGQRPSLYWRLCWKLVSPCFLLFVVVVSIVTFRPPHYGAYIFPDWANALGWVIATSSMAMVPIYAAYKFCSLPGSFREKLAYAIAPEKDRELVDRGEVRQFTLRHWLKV

Work on OC1(C(CN2CCNCC2)c2cc(Cl)sc2Cl)CCCCC1 (stereo not given) yielded an IC50 [1] of 0.225 µM, an INH [2] of 94 µM and an INH [3] of 12.2 µM.
Compound OC1(C(CN2CCNCC2)c2cc3ccccc3s2)CCCCC1 (stereo not given) has an IC50 [1] of 0.55 µM, an inhibition [4] of 61% and an INH [2] of 73 µM. The INH [3] was 89 µM.
Work on OC1(C(CN2CCNCC2)c2csc3ccccc23)CCCCC1 (stereo not given) yielded an IC50 [1] of 0.255 µM, an inhibition [4] of 51% and an INH [2] of 82 µM. It also gave an INH [3] of 48 µM.
OC1(C(CN2CCNCC2)c2ccc(Cl)s2)CCCCC1 (stereo not given) showed an INH [2] of 50.8 µM.
With CN1CCN(C[C@H](c2cccc(Cl)c2)C2(O)CCCCC2)CC1 the IC50 [5] was 0.175 µM, the IC50 [1] was 0.03 µM and the INH [2] was 92 µM.
With OC1(C(CN2CCNCC2)c2ccsc2Cl)CCCCC1 (stereo not given) the IC50 [1] was 0.72 µM, the INH [2] was 55 µM and the INH [3] was 34 µM.
Work on OC1(C(CN2CCNCC2)c2cccs2)CCCCC1 (stereo not given) yielded an INH [2] of 54 µM.
Work on CN1CCN(C[C@H](c2csc(Cl)c2)C2(O)CCCCC2)CC1 yielded an IC50 [5] of 0.212 µM, an Activity (Rattus norvegicus [6]) of -3.3 °C and an IC50 [1] of 0.057 µM. It also gave an INH [2] of 91 µM and an Activity (Rattus norvegicus [7]) of -4.6 °C.
OC1(C(CN2CCNCC2)c2c[nH]c3ccccc23)CCCCC1 (stereo not given) showed an INH [2] of 21 µM and an INH [3] of 90 µM.
Compound CN1CCN(C[C@@H](c2cccc(Cl)c2)C2(N)CCCCC2)CC1 has an IC50 [5] of 0.03 µM, an IC50 [1] of 0.576 µM and an INH [3] of 32 µM.
Cn1cc(C(CN2CCNCC2)C2(O)CCCCC2)c2ccccc21 (stereo not given) showed an INH [2] of 32 µM.
With CN1CCN(C[C@@H](c2csc(Cl)c2)C2(O)CCCCC2)CC1 the IC50 [5] was greater than 6 µM, the IC50 [1] was 18 µM and the INH [2] was 0 µM.
CN1CCN(CC(c2cccc(Cl)c2)C2(O)CCCCC2)CC1 (stereo not given) gave an Activity (Rattus norvegicus [8]) of -3.1 °C, an IC50 [5] of 0.247 µM and an Activity (Rattus norvegicus [9]) of -3.8 °C. For the same compound, the Activity (Rattus norvegicus [10]) was -3.5 °C, the IC50 [11] was greater than 2 µM and the IC50 [1] was 0.056 µM. For the same compound, the half-life [12] was less than 1 min and the Activity (Rattus norvegicus [13]) was -2.6 °C.
CN1CCN(CC(c2csc(Cl)c2)C2(O)CCCCC2)CC1 (stereo not given) showed an IC50 [5] of 0.389 µM, an Activity (Rattus norvegicus [14]) of -4.2 °C and an Activity (Rattus norvegicus [15]) of -2.75 °C. It also gave an IC50 [1] of 0.095 µM and an INH [2] of 88 µM.
For OC1(C(CN2CCNCC2)c2cnc3ccccc3c2)CCCCC1 (stereo not given), the INH [2] was 19 µM.
Compound OC1(C(CN2CCNCC2)c2csc(Cl)c2)CCCCC1 (stereo not given) has an IC50 [1] of 0.1 µM, an inhibition [4] of 43% and an INH [2] of 86 µM.
